In PubChem BioAssay (NCI):
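Exposure lasted 48 hours, with cells grown in 96-well plates and compounds tested at five concentrations. GI50 = concentration required for 50% inhibition of growth. TGI marks complete inhibition of growth.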

What was measured:
Test in all cases: DTP human tumour cell line panel, 48 h
HCT-15 colon = test system: HCT-15 colon
MDA-MB-231 breast = test system: MDA-MB-231 breast
BT-549 breast = test system: BT-549 breast
OVCAR-8 ovarian = test system: OVCAR-8 ovarian
IGROV1 ovarian = test system: IGROV1 ovarian
MOLT-4 leukemia = test system: MOLT-4 leukemia
K-562 leukemia = test system: K-562 leukemia
CCRF-CEM leukemia = test system: CCRF-CEM leukemia
SR leukemia = test system: SR leukemia
NCI-H23 lung = test system: NCI-H23 lung
UACC-257 melanoma = test system: UACC-257 melanoma
786-0 renal = test system: 786-0 renal
NCI-H460 lung = test system: NCI-H460 lung
KM12 colon = test system: KM12 colon
OVCAR-4 ovarian = test system: OVCAR-4 ovarian
TK-10 renal = test system: TK-10 renal
SF-268 CNS = test system: SF-268 CNS
SK-MEL-2 melanoma = test system: SK-MEL-2 melanoma
HS 578T breast = test system: HS 578T breast
A549 NSCLC = test system: A549 NSCLC
EKVX NSCLC = test system: EKVX NSCLC
SNB-75 CNS = test system: SNB-75 CNS
U251 CNS = test system: U251 CNS
NCI-H522 lung = test system: NCI-H522 lung
OVCAR-3 ovarian = test system: OVCAR-3 ovarian
T-47D breast = test system: T-47D breast
OVCAR-5 ovarian = test system: OVCAR-5 ovarian
M14 melanoma = test system: M14 melanoma
LOX IMVI melanoma = test system: LOX IMVI melanoma
DU-145 prostate = test system: DU-145 prostate
HOP-92 NSCLC = test system: HOP-92 NSCLC
PC-3 prostate = test system: PC-3 prostate
COLO 205 colon = test system: COLO 205 colon
HCC-2998 colon = test system: HCC-2998 colon
SW-620 colon = test system: SW-620 colon
A498 renal = test system: A498 renal
MALME-3M melanoma = test system: MALME-3M melanoma
SNB-19 CNS = test system: SNB-19 CNS
RPMI-8226 leukemia = test system: RPMI-8226 leukemia
SN12C renal = test system: SN12C renal
ACHN renal = test system: ACHN renal
SF-295 CNS = test system: SF-295 CNS
SK-MEL-5 melanoma = test system: SK-MEL-5 melanoma
HT29 colon = test system: HT29 colon
MDA-MB-435 = test system: MDA-MB-435
RXF 393 renal = test system: RXF 393 renal
SF-539 CNS = test system: SF-539 CNS
UO-31 renal = test system: UO-31 renal
NCI-H226 lung = test system: NCI-H226 lung
HOP-62 NSCLC = test system: HOP-62 NSCLC
UACC-62 melanoma = test system: UACC-62 melanoma
SK-OV-3 ovarian = test system: SK-OV-3 ovarian
HL-60(TB) leukemia = test system: HL-60(TB) leukemia
SK-MEL-28 melanoma = test system: SK-MEL-28 melanoma

## O=C1C(Cl)=C(Nc2ccc3c(c2NC2=C(Cl)C(=O)c4ccccc4C2=O)C(=O)c2ccccc2C3=O)C(=O)c2ccccc21
HCT-15 colon
  GI50: 1620 nM
  TGI: 4190 nM
MDA-MB-231 breast
  GI50: 1670 nM
  TGI: 7870 nM
BT-549 breast
  GI50: 1360 nM
  TGI: 2830 nM
OVCAR-8 ovarian
  GI50: 2720 nM
  TGI: 9600 nM
IGROV1 ovarian
  GI50: 1620 nM
  TGI: 4250 nM
MOLT-4 leukemia
  GI50: 3250 nM
  TGI: 17500 nM
K-562 leukemia
  GI50: 2750 nM
  TGI: 7810 nM
CCRF-CEM leukemia
  GI50: 2480 nM
  TGI: 24700 nM
SR leukemia
  GI50: 1420 nM
  TGI: > 100000 nM
NCI-H23 lung
  GI50: 1080 nM
  TGI: 4100 nM
UACC-257 melanoma
  GI50: 1880 nM
  TGI: 3950 nM
786-0 renal
  GI50: 2910 nM
  TGI: 9600 nM
NCI-H460 lung
  GI50: 1860 nM
  TGI: 5850 nM
KM12 colon
  GI50: 2980 nM
  TGI: 15000 nM
OVCAR-4 ovarian
  GI50: 1420 nM
  TGI: 2990 nM
TK-10 renal
  GI50: 7260 nM
  TGI: 22200 nM
SF-268 CNS
  GI50: 2910 nM
  TGI: 12900 nM
SK-MEL-2 melanoma
  GI50: 1820 nM
  TGI: 6330 nM
HS 578T breast
  GI50: 2100 nM
  TGI: 6880 nM
A549 NSCLC
  GI50: 1950 nM
  TGI: 4610 nM
EKVX NSCLC
  GI50: 1830 nM
  TGI: 4180 nM
SNB-75 CNS
  GI50: 4350 nM
  TGI: 13900 nM
U251 CNS
  GI50: 2580 nM
  TGI: 9380 nM
NCI-H522 lung
  GI50: 2480 nM
  TGI: 8700 nM
OVCAR-3 ovarian
  GI50: 1780 nM
  TGI: 7030 nM
T-47D breast
  GI50: 2190 nM
  TGI: 5990 nM
OVCAR-5 ovarian
  GI50: 2060 nM
  TGI: 4400 nM
M14 melanoma
  GI50: 1020 nM
  TGI: 2290 nM
LOX IMVI melanoma
  GI50: 872 nM
  TGI: 10400 nM
DU-145 prostate
  GI50: 1570 nM
  TGI: 2970 nM
HOP-92 NSCLC
  GI50: 2030 nM
  TGI: 4950 nM
PC-3 prostate
  GI50: 1920 nM
  TGI: 12500 nM
COLO 205 colon
  GI50: 1690 nM
  TGI: 3720 nM
HCC-2998 colon
  GI50: 3260 nM
  TGI: 10700 nM
SW-620 colon
  GI50: 2930 nM
  TGI: 10600 nM
A498 renal
  GI50: 2020 nM
  TGI: 4200 nM
MALME-3M melanoma
  GI50: 505 nM
  TGI: 1720 nM
SNB-19 CNS
  GI50: 2740 nM
  TGI: 10300 nM
RPMI-8226 leukemia
  GI50: 1660 nM
  TGI: 9370 nM
SN12C renal
  GI50: 1730 nM
  TGI: 4460 nM
ACHN renal
  GI50: 2150 nM
  TGI: 9050 nM
SF-295 CNS
  GI50: 1380 nM
  TGI: 3200 nM
SK-MEL-5 melanoma
  GI50: 386 nM
  TGI: 1470 nM
HT29 colon
  GI50: 3120 nM
  TGI: 8540 nM
MDA-MB-435
  GI50: 346 nM
  TGI: 1040 nM
RXF 393 renal
  GI50: 2970 nM
  TGI: 9790 nM
SF-539 CNS
  GI50: 2830 nM
  TGI: 8070 nM
UO-31 renal
  GI50: 1750 nM
  TGI: 9010 nM
NCI-H226 lung
  GI50: 2700 nM
  TGI: 8900 nM
HOP-62 NSCLC
  GI50: 2250 nM
  TGI: 5680 nM
UACC-62 melanoma
  GI50: 1300 nM
  TGI: 2900 nM
SK-OV-3 ovarian
  GI50: 6520 nM
  TGI: 20600 nM
HL-60(TB) leukemia
  GI50: 2360 nM
  TGI: 14000 nM
SK-MEL-28 melanoma
  GI50: 2870 nM
  TGI: 8610 nM
